This is an account of results in US9382228B2 (priority 2013, dated 2016).

Experiment [1] relates to osteoclast precursors. In words: cells. Format: cell-based. The settings on record: read-out: Osteoclast assay.
The test system of experiment [2] is M-NFS-60 cells. Nature of the experiment: cells. To be noted: 67 h, read-out: M-NFS-60 cell proliferation.
Method: M-NFS-6 Cell Proliferation Assay
A serial dilution of test compound was dispensed into a 384-well black clear bottom plate (Corning, Corning, N.Y.). Two thousand five hundred cells were added per well in 50 μL complete growth medium. […] IC50 values were calculated from a series of percent inhibition values determined at a range of inhibitor concentrations using software routines as implemented in the GraphPad Prism software package.
Experiment [3] relates to phospho-FMS in THP-1 cells. Nature of the experiment: cells. To be noted: Homo sapiens, THP-1, read-out: pFMS inhibition in THP-1 cells.
Method: In a separate 96 well black clear bottom plate, one hundred and fifty thousand THP-1 cells were added per well in 100 μL in assay medium. Fifty microliters of diluted compound was then added to the cells. […] Lysates were prepared and used to perform the phospho-FMS ELISA as described by the manufacturer (catalog #DYC3268, R & D Systems, Minneapolis, Minn.). GraphPad Prism was used to calculate IC50 values obtained from data generated from the ELISA assay.
Experiment [4] has as its target T1, unphosphorylated c-FMS kinase (uFMS, Seq. ID no. 1) (Homo sapiens, UniProt P07333).
T1 sequence (P07333 538-972): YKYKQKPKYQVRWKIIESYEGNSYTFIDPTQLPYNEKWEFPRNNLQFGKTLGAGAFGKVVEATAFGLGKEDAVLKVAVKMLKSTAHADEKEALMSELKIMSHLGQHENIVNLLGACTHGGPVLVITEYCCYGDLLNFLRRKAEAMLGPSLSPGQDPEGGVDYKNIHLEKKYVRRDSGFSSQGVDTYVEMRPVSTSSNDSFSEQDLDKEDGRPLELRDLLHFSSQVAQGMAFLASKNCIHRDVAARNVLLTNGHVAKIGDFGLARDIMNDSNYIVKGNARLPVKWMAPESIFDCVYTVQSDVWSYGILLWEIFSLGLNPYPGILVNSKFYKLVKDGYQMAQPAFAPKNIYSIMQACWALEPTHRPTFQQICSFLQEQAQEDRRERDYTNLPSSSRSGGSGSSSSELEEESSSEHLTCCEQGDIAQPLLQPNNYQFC
In words: biochemical. To be noted: uFMS, enzymatic assay, ATP 500 μM.
Method: In this assay, the oxidation of NADH (thus the decrease at A340 nm) was continuously monitored spectrophometrically. The reaction mixture (100 μL) contained FMS (purchased from Millipore) (10 nM), polyE4Y (1 mg/mL), MgCl2 (10 mM), pyruvate kinase (4 units), lactate dehydrogenase (0.7 units), phosphoenol pyruvate (1 mM), NADH (0.28 mM) and ATP (500 μM) in 90 mM Tris buffer containing 0.2% octyl-glucoside and 1% DMSO, pH 7.5. The inhibition reaction was started by mixing serial diluted test compound with the above reaction mixture. The absorption at 340 nm was monitored continuously for 4 hours at 30° C. on Synergy 2 plate reader. The reaction rate was calculated using the 3 to 4 h time frame. Percent inhibition was obtained by comparison of reaction rate with that of a control (i.e. in the absence of test compound). IC50 values were calculated from a series of percent inhibition values determined at a range of inhibitor concentrations using software routines as implemented in the GraphPad Prism software package.

In experiment [5] the target is unphosphorylated c-KIT kinase (uKIT, Seq. ID no. 2) (Homo sapiens, UniProt P10721). In words: biochemical. The settings on record: uKIT, enzymatic assay, ATP 2000 μM.
Method: uKit kinase (Seq. ID No. 2) Assay
In this assay, the oxidation of NADH (thus the decrease at A340 nm) was continuously monitored spectrophometrically. […] The inhibition reaction was started by mixing serial diluted test compound with the above reaction mixture. The absorption at 340 nm was monitored continuously for 4 hours at 30° C. on Synergy 2 plate reader (BioTech).
Experiment [6] addresses unphosphorylated PDGFRβ kinase (uPDGFRβ, Seq. ID No. 3) (Homo sapiens, UniProt P09619). In words: biochemical. To be noted: uPDGFRb, enzymatic assay, ATP 500 μM.

unphosphorylated PDGFRβ kinase (uPDGFRβ, Seq. ID No. 3), sequence (P09619 557-1106): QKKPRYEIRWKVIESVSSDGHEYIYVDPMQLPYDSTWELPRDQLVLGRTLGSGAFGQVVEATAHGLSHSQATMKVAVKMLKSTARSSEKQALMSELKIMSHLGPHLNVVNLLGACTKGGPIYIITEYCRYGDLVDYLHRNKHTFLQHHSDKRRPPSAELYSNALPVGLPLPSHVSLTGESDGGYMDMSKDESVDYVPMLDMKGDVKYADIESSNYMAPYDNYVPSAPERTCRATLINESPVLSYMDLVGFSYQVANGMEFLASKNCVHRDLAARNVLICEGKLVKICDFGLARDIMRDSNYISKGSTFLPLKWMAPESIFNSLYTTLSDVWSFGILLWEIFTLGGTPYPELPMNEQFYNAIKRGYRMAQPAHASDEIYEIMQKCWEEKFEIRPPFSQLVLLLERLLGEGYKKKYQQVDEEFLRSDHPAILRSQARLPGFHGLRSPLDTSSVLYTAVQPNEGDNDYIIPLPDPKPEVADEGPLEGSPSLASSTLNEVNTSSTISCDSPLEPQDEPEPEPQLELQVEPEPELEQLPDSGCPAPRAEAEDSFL
unphosphorylated c-KIT kinase (uKIT, Seq. ID no. 2), sequence (P10721 with tags, fused parts or gaps): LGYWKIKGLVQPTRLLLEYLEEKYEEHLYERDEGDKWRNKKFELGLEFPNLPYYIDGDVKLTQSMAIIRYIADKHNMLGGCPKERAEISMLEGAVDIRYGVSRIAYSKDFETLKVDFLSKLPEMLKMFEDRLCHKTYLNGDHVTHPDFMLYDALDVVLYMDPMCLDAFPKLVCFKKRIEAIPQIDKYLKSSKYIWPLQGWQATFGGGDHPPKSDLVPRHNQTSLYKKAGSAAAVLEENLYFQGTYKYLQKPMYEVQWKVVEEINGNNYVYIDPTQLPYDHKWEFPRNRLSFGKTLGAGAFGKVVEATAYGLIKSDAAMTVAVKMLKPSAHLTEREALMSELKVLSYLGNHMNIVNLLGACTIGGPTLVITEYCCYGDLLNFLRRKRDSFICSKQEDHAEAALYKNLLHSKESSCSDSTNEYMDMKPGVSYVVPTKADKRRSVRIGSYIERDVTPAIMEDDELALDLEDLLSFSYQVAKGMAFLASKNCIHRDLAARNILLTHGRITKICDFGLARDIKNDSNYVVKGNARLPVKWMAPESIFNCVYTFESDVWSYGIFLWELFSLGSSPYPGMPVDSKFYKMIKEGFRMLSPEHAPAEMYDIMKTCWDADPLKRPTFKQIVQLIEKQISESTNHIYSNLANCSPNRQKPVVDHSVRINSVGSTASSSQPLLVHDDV

Regarding `Cn1cc(-c2cc(Oc3ccc(NC(=O)NC(=O)C4(C)CCOCC4)nc3)ccn2)cn1` [Example 175, 4-methyl-N-((5-((2-(1-methyl-1H-pyrazol-4-yl)pyridin-4-yl)oxy)pyridin-2-yl)carbamoyl)tetrahydro-2H-pyran-4-carboxamide], the IC50 in experiment [1] is 10 to 100 nM; in experiment [2], 10 to 100 nM; in experiment [3], 10 to 100 nM; in experiment [4], under 10 nM; in experiment [5], 100 to 1000 nM; in experiment [6] it was 100 to 1000 nM.
Consider `CCOC(C)(C)C(=O)NC(=O)Nc1ccc(Oc2ccnc(-c3cnc(C)s3)c2)cn1` [Example 124, 2-ethoxy-2-methyl-N-((5-((2-(2-methylthiazol-5-yl)pyridin-4-yl)oxy)pyridin-2-yl)carbamoyl)propanamide], for which the IC50 in experiment [1] is 10 to 100 nM; in experiment [2] it was 10 to 100 nM; in experiment [3], 10 to 100 nM; in experiment [4] it was under 10 nM; in experiment [5], over 1000 nM; in experiment [6], over 1000 nM.
For `Cn1cc(-c2cc(Oc3ccc(NC(=O)NC(=O)C4CC(C)(C)C4)nc3)ccn2)cn1` [Example 2, 3,3-dimethyl-N-((5-((2-(1-methyl-1H-pyrazol-4-yl)pyridin-4-yl)oxy)pyridin-2-yl)carbamoyl)cyclobutanecarboxamide], the IC50 in experiment [1] was under 10 nM; in experiment [2], under 10 nM; in experiment [3], under 10 nM; in experiment [4] it was under 10 nM; in experiment [5], under 10 nM; in experiment [6], 10 to 100 nM.
With `Cn1cnc(-c2cc(Oc3ccc(NC(=O)NC(=O)C(C)(C)C)nc3)ccn2)c1` [Example 104, N-((5-((2-(1-methyl-1H-imidazol-4-yl)pyridin-4-yl)oxy)pyridin-2-yl)carbamoyl)pivalamide], the IC50 was under 10 nM in experiment [1]; under 10 nM in experiment [2]; under 10 nM in experiment [3]; under 10 nM in experiment [4]; over 1000 nM in experiment [5]; over 1000 nM in experiment [6].
Turning to `Cn1cc(-c2cc(Oc3ccc(NC(=O)NC(=O)C4CCOC4)nc3)ccn2)cn1` (stereo not drawn) [Example 66, N-((5-((2-(1-methyl-1H-pyrazol-4-yl)pyridin-4-yl)oxy)pyridin-2-yl)carbamoyl)tetrahydrofuran-3-carboxamide], the IC50 in experiment [1] is under 10 nM; in experiment [2], 10 to 100 nM; in experiment [3] it was under 10 nM; in experiment [4], under 10 nM; in experiment [5], 100 to 1000 nM; in experiment [6], over 1000 nM.
In the case of `COC(C)(C)C(=O)NC(=O)Nc1ccc(Oc2ccnc(-c3ccc(C)nc3)c2)cn1` [Example 72, 2-methoxy-2-methyl-N-((5-((6′-methyl-[2,3′-bipyridin]-4-yl)oxy)pyridin-2-yl)carbamoyl)propanamide], the IC50 in experiment [1] was under 10 nM; in experiment [2], 10 to 100 nM; in experiment [3], under 10 nM; in experiment [4], under 10 nM; in experiment [5], over 1000 nM; in experiment [6] it was 100 to 1000 nM.
On to `Cc1nc(NC(=O)NC(=O)C(C)(C)C)ccc1Oc1ccnc(-c2c[nH]nn2)c1` [Example 171, N-((5-((2-(1H-1,2,3-triazol-4-yl)pyridin-4-yl)oxy)-6-methylpyridin-2-yl)carbamoyl)pivalamide], for which the IC50 in experiment [1] is 10 to 100 nM; in experiment [2], 10 to 100 nM; in experiment [3], 10 to 100 nM; in experiment [4], under 10 nM; in experiment [5], over 1000 nM; in experiment [6], over 1000 nM.
With `Cc1ccc(-c2cc(Oc3ccc(NC(=O)NC(=O)C(C)(C)C)nc3)ccn2)cn1` [Example 73, N-((5-((6′-methyl-[2,3′-bipyridin]-4-yl)oxy)pyridin-2-yl)carbamoyl)pivalamide], the IC50 was under 10 nM in experiment [1]; 10 to 100 nM in experiment [2]; under 10 nM in experiment [3]; under 10 nM in experiment [4]; over 1000 nM in experiment [5]; 100 to 1000 nM in experiment [6].
For `COC(C)(C)C(=O)NC(=O)Nc1cc(C)c(Oc2ccnc(-c3cnn(C)c3)c2)cn1` [Example 91, 2-methoxy-2-methyl-N-((4-methyl-5-((2-(1-methyl-1H-pyrazol-4-yl)pyridin-4-yl)oxy)pyridin-2-yl)carbamoyl)propanamide], the IC50 in experiment [1] was under 10 nM; in experiment [2], under 10 nM; in experiment [3], under 10 nM; in experiment [4] it was under 10 nM; in experiment [5] it was 10 to 100 nM; in experiment [6], 100 to 1000 nM.
On to `Cc1nc(NC(=O)NC(=O)C(C)(C)C)ccc1Oc1ccnc(-c2cncs2)c1` [Example 131, N-((6-methyl-5-((2-(thiazol-5-yl)pyridin-4-yl)oxy)pyridin-2-yl)carbamoyl)pivalamide], for which the IC50 is 10 to 100 nM in experiment [1]; 10 to 100 nM in experiment [2]; under 10 nM in experiment [3]; under 10 nM in experiment [4]; over 1000 nM in experiment [5]; over 1000 nM in experiment [6].
For `CC(C)c1nc(-c2cc(Oc3ccc(NC(=O)NC(=O)C(C)(C)C)nc3)ccn2)c[nH]1` [Example 169, N-((5-((2-(2-isopropyl-1H-imidazol-4-yl)pyridin-4-yl)oxy)pyridin-2-yl)carbamoyl)pivalamide], the IC50 in experiment [1] is 10 to 100 nM; in experiment [2], 10 to 100 nM; in experiment [3], under 10 nM; in experiment [4], under 10 nM; in experiment [5], over 1000 nM; in experiment [6] it was over 1000 nM.
